# In patent US20160022751A1, “NOVEL COMPOSITION FOR TREATING ALZHEIMER'S DISEASE AND IMPROVING COGNITIVE FUNCTION OF ALZHEIMER'S PATIENTS” (GANGNEUNG-WONJU NATIONAL UNIVERSITY INDUSTRY ACADEMY …, priority 2014, published 2016):
# Test system: Aβ42
# Test: Morris water maze test in Aβ42-infused animals
# Assay type: in vivo
# Conditions: Aβ42 rats administered Rg3 (FIG. 25)
# Procedure: Male BALB/c mice (10 weeks old) were purchased from Samtaco (Korea), and were adapted to laboratory conditions (temperature: 20±2° C., relative humidity: 50%, light/dark cycle: 12 h) for 1 week. Five-week-old male Sprague-Dawley rats were obtained from Daehan-Biolink (Korea) for learning and memory testing. The animals (n=5/group) were maintained at a constant temperature (23±2° C.), relative humidity, 55±10%, and 12-h light/dark cycle. The animals were fed a standard rodent chow and purified water ad libitum. Lyophilized Aβ42 (0.5 mg, Bachem Torrance, USA) was resuspended in PBS (pH 7.4) by shaking for 7 days at room temperature to prepare the fibrillar-aggregated Aβ42 (fAβ42). At 10 weeks of age, mice were anesthetized, and 1 μl fAβ42 (350 μM stock concentration) was stereotaxically injected unilaterally into the parietal cortex (anterior 1.7 mm, lateral 1 mm, and ventral 1 mm to the bregma above the hippocampus within 1 min) (Mohajeri et al., J. Biol. Chem., 277: 35460-35465, 2002)
# The present inventor performed learning and memory tests using rats in order to investigate whether Rg3 can ameliorate symptoms of Alzheimer's model animals in deed. […] The latency time of stay in the light room from lights-on was recorded following an electric shock (1 mA for 2 s) in the dark compartment. […] The mean time spent to escape onto the platform was recorded.
smiles,measurement,value
CC(C)=CCC[C@](C)(O)[C@H]1CC[C@]2(C)[C@@H]1[C@H](O)C[C@@H]1[C@@]3(C)CC[C@H](O[C@@H]4O[C@H](CO)[C@@H](O)[C@H](O)[C@H]4O[C@@H]4O[C@H](CO)[C@@H](O)[C@H](O)[C@H]4O)C(C)(C)[C@@H]3CC[C@]12C [ginsenoside Rg3],"learning and memory functions, Morris water-maze",maintained learning and memory functions at 4-5 weeks
